For orientation: inhibition in vivo means the change of the read-out against control, counted positive when it falls.

38 molecules from patent US20080070868A1, “Novel Thiazole Inhibitors of Fructose 1,6-bisphosphatase” (Metabasis Therapeutics, Inc., priority 2004, published 2008) can be followed below.

The test system of the experiment is Sprague-Dawley rats. Description: Glucose lowering following oral administration to the fasted, normal rat. Format: in vivo. The settings on record: maximum lowering relative to saline controls, 10 mg/kg oral, 18-h fasted rats. The protocol: Compounds were administered by oral gavage to 18-h fasted, Sprague-Dawley rats (250-300 g, n=3/4/group) at a dose of 10 mg/kg. Phosphonic acids (active moieties) were prepared in deionized water, and the solution adjusted to neutrality with sodium hydroxide. Prodrugs were dissolved in polyethylene glycol (mw 400). Blood samples were taken via tail vein nick immediately prior to dosing and at 1 h intervals thereafter. Blood glucose was analyzed by means of a HemoCue glucose analyzer (HemoCue Inc., Mission Viejo, Calif.). The table below indicates the maximum % glucose lowering achieved relative to control animals dosed with saline.
Turning to `CCOC(=O)[C@H](C)NP(=O)(N[C@@H](C)C(=O)OCC)c1ccc(-c2nc(N)sc2C(=O)C(CC)CC)o1` [Compound 2.24, 2-amino-5-(2-ethylbutyryl)-4-{[5-(N,N′-((S)-1′-ethyl-oxycarbonyl)ethyl)-phosphonamido]furan-2-yl}thiazole], the inhibition in vivo at 10 mg/kg came to 19%. With `CCC(CC)C(=O)c1sc(N)nc1-c1ccc(P(=O)(OCCSC(=O)c2ccccc2)OCCSC(=O)c2ccccc2)o1` [Compound 6.2] the figure was 3%.

`CC(C)(C)C(=O)c1sc(N)nc1-c1ccc(P2(=O)OCC[C@@H](c3cccc(Cl)c3)O2)o1` (stereo partly drawn) [Compound 7.1, (cis)-2-amino-5-(2,2-dimethylpropionyl)-4-{[5-(4-(3-chlorophenyl)-2-oxo-1,3,2-phosphorinan-2-yl)]furan-2-yl}thiazole] yielded an inhibition in vivo at 10 mg/kg of 70%. `CCC(C)(C)C(=O)c1sc(N)nc1-c1ccc(P(=O)(NCC(=O)OC(C)(C)C)NCC(=O)OC(C)(C)C)o1` [Compound 2.12, 2-amino-5-(2,2-dimethylbutyryl)-4-{[5-(N,N′-tert-butyloxycarbonyl-methyl)phosphonamido]furan-2-yl}thiazole] registered an inhibition in vivo at 10 mg/kg of 10%. Turning to `Cc1ccccc1C(=O)c1sc(N)nc1-c1ccc(P(=O)(NC(C)(C)C(=O)OC(C)C)NC(C)(C)C(=O)OC(C)C)o1` [Compound 2.21], at 10 mg/kg the inhibition in vivo was 9%. Turning to `CCC(C)(CC)C(=O)c1sc(N)nc1-c1ccc(P(=O)(N[C@@H](C)C(=O)OC(C)C)N[C@@H](C)C(=O)OC(C)C)o1` [Compound 2.11, 2-amino-5-(2-ethyl-2-methylbutyryl)-4-{[5-(N,N′-((S)-1-isopropyloxy-carbonyl)-ethyl)phosphonamido]furan-2-yl}thiazole], the inhibition in vivo at 10 mg/kg came out at 13%.

Turning to `CCOC(=O)C(C)(C)NP(=O)(OCC(=O)OCc1ccccc1)c1ccc(-c2nc(N)sc2C(=O)C(C)(C)C)o1` (centres unmarked) [Compound 5.5], the inhibition in vivo at 10 mg/kg is 20%.

For the molecule `CCOC(=O)C(C)(C)NP(=O)(NC(C)(C)C(=O)OCC)c1ccc(-c2nc(N)sc2C(=O)C(CC)CC)o1` [Compound 2.23], testing at 10 mg/kg gave an inhibition in vivo of 12%.

`CCC(CC)C(=O)c1sc(N)nc1-c1ccc(P(=O)(NC(C)(C)C(=O)OC(C)C)NC(C)(C)C(=O)OC(C)C)o1` [Compound 2.25] gave an inhibition in vivo at 10 mg/kg of 10%.

Turning to `CCOC(=O)[C@H](C)NP(=O)(N[C@@H](C)C(=O)OCC)c1ccc(-c2nc(N)sc2C(=O)c2ccccc2C)o1` [Compound 2.14, 2-amino-5-(2-methylbenzoyl)-4-{[5-(N,N′-((S)-1-ethyl-oxycarbonyl)ethyl)-phosphonamido]furan-2-yl}thiazole], the inhibition in vivo at 10 mg/kg came out at 20%.

Molecule `CCOC(=O)OCOP(=O)(OCOC(=O)OCC)c1ccc(-c2nc(N)sc2C(=O)C(C)(C)C)o1` [Compound 8.3, 2-amino-5-(2,2-dimethylpropionyl)-4-{[5-(O,O′-bis(ethoxycarbonyl-oxymethyl)phosphono)]furan-2-yl}thiazole] registered an inhibition in vivo at 10 mg/kg of 24%.

In turn, `CCOC(=O)C(C)(C)NP(=O)(O[C@@H](C)C(=O)OC(C)C)c1ccc(-c2nc(N)sc2C(=O)C(C)(C)C)o1` (some centres unmarked) [Compound 5.10] registered an inhibition in vivo at 10 mg/kg of 4%.

Molecule `Cc1ccc(C(=O)c2sc(N)nc2-c2ccc(P(=O)(NC(C)(C)C(=O)OC(C)C)NC(C)(C)C(=O)OC(C)C)o2)cc1` [Compound 2.20] came in with an inhibition in vivo at 10 mg/kg of 6%. `CCC(CC)C(=O)c1sc(N)nc1-c1ccc(P(=O)(OCOC(=O)C(C)(C)C)OCOC(=O)C(C)(C)C)o1` [Compound 8.2, 2-amino-5-(2-ethylbutyryl)-4-{[5-(O,O′-bis(pivalyloxymethyl)-phosphono)]-furan-2-yl}thiazole] yielded an inhibition in vivo at 10 mg/kg of 10%. With `CCOC(=O)SCCOP(=O)(OCCSC(=O)OCC)c1ccc(-c2nc(N)sc2C(=O)C(C)(C)C)o1` [Compound 6.6] the figure was 4%. For the molecule `CC(C)(C)C(=O)c1sc(N)nc1-c1ccc(P2(=O)OCC[C@H](c3cccc(Cl)c3)O2)o1` (stereo partly drawn) [Compound 7.2, (trans)-2-amino-5-(2,2-dimethylpropionyl)-4-{[5-(4-(3-chlorophenyl)-2-oxo-1,3,2-phosphorinan-2-yl)]furan-2-yl}thiazole], the inhibition in vivo at 10 mg/kg amounted to 3%. For `CCOC(=O)COP(=O)(NC(C)(C)C(=O)OC(C)C)c1ccc(-c2nc(N)sc2C(=O)C(C)(C)C)o1` (centres unmarked) [Compound 5.7], the inhibition in vivo at 10 mg/kg was determined as 25%. On to `CCOC(=O)C(C)(C)NP(=O)(NC(C)(C)C(=O)OCC)c1ccc(-c2nc(N)sc2C(=O)C(C)(C)CC)o1` [Compound 2.9], for which at 10 mg/kg the inhibition in vivo was 24%. For the molecule `CCOC(=O)[C@H](C)NP(=O)(N[C@@H](C)C(=O)OCC)c1ccc(-c2nc(N)sc2C(=O)C(C)(C)CC)o1` [Compound 2.10, 2-amino-5-(2,2-dimethylbutyryl)-4-{[5-(N,N′-((S)-1-ethoxycarbonyl)-ethyl)phosphonamido]furan-2-yl}thiazole], the inhibition in vivo at 10 mg/kg was found to be 12%. As to `CCOC(=O)C(C)(C)NP(=O)(Oc1ccc2c(c1)OCO2)c1ccc(-c2nc(N)sc2C(=O)C(C)(C)C)o1` (centres unmarked) [Compound 5.3], at 10 mg/kg the inhibition in vivo was 51%. The molecule `CCC(C)(C)C(=O)c1sc(N)nc1-c1ccc(P(=O)(NC(C)(C)C(=O)OC(C)C)NC(C)(C)C(=O)OC(C)C)o1` [Compound 2.8] yielded an inhibition in vivo at 10 mg/kg of 14%. With `CCOC(=O)[C@H](C)NP(=O)(N[C@@H](C)C(=O)OCC)c1ccc(-c2nc(N)sc2C(=O)C(C)(CC)CC)o1` [Compound 2.7, 2-amino-5-(2-ethyl-2-methylbutyryl)-4-{[5-(N,N′-((S)-1-ethoxycar-bonyl)ethyl)phosphonamido]furan-2-yl}thiazole] the figure was 10%. Molecule `CCC(CC)C(=O)c1sc(N)nc1-c1ccc(P(=O)(N[C@@H](C)C(=O)OC(C)C)N[C@@H](C)C(=O)OC(C)C)o1` [Compound 2.26, 2-amino-5-(2-ethylbutyryl)-4-{[5-(N,N′-((S)-1-isopropyl-oxycarbonyl)ethyl)-phosphonamido]furan-2-yl}thiazole] gave an inhibition in vivo at 10 mg/kg of 16%. Consider `CCOC(=O)COP(=O)(N[C@@H](C)C(=O)OCC)c1ccc(-c2nc(N)sc2C(=O)C(C)(C)C)o1` (stereo partly drawn) [Compound 5.8, 2-amino-5-(2,2-dimethylpropionyl)-4-{2-[5-(N-((S)-1-ethoxy-carbonyl)ethyl)-O-(ethoxycarbonylmethyl)monophosphonamido]furanyl}-thiazole], for which at 10 mg/kg the inhibition in vivo was 10%. For the molecule `CCOC(=O)C(C)(C)NP(=O)(NC(C)(C)C(=O)OCC)c1ccc(-c2nc(N)sc2C(=O)c2cccc(F)c2)o1` [Compound 2.27], at 10 mg/kg the inhibition in vivo was 6%.

For `CC(C)(C)C(=O)OCOP(=O)(OCOC(=O)C(C)(C)C)c1ccc(-c2nc(N)sc2C(=O)C(C)(C)C)o1` [Compound 8.4, 2-amino-5-(2,2-dimethylpropionyl)-4-{[5-(O,O′-bis(pivalyloxymethyl)phosphono)]furan-2-yl}thiazole], 10 mg/kg produced 6% inhibition in vivo.

With `CCOC(=O)COP(=O)(N[C@@H](C)C(=O)OC(C)C)c1ccc(-c2nc(N)sc2C(=O)C(C)(C)C)o1` (stereo partly drawn) [Compound 5.6, 2-amino-5-(2,2-dimethylpropionyl)-4-{2-[5-(N-((S)-1-isopropyloxy-carbonyl)ethyl)-O-(ethoxycarbonylmethyl)monophosphonamido]furanyl}-thiazole], at 10 mg/kg the inhibition in vivo was 4%. Take `CCOC(=O)C(C)(C)NP(=O)(NC(C)(C)C(=O)OCC)c1ccc(-c2nc(N)sc2C(=O)c2ccc(C)cc2)o1` [Compound 2.17]: the inhibition in vivo at 10 mg/kg came out at 10%.

Molecule `CC(=O)SC1CCCCC1OP(=O)(OC1CCCCC1SC(C)=O)c1ccc(-c2nc(N)sc2C(=O)C(C)(C)C)o1` (centres unmarked) [Compound 6.8] showed an inhibition in vivo at 10 mg/kg of 1%. Take `CCOC(=O)C(C)(C)NP(=O)(NC(C)(C)C(=O)OCC)c1ccc(-c2nc(N)sc2C(=O)c2ccccc2C)o1` [Compound 2.15]: the inhibition in vivo at 10 mg/kg amounted to 8%. In turn, `CCOC(=O)[C@H](C)OP(=O)(NC(C)(C)C(=O)OCC)c1ccc(-c2nc(N)sc2C(=O)C(C)(C)C)o1` (some centres unmarked) [Compound 5.9] returned an inhibition in vivo at 10 mg/kg of 10%. Molecule `Cc1ccccc1C(=O)c1sc(N)nc1-c1ccc(P(=O)(N[C@@H](C)C(=O)OC(C)C)N[C@@H](C)C(=O)OC(C)C)o1` [Compound 2.22, 2-amino-5-(2-methylbenzoyl)-4-{[5-(N,N′-((S)-1-isopropyl-oxycarbonyl)ethyl)-phosphonamido]furan-2-yl}thiazole] displayed an inhibition in vivo at 10 mg/kg of 9%. For the molecule `CC(C)OC(=O)C(C)(C)NP(=O)(NC(C)(C)C(=O)OC(C)C)c1ccc(-c2nc(N)sc2C(=O)c2cccc(F)c2)o1` [Compound 2.28], at 10 mg/kg the inhibition in vivo was 10%. With `CCOC(=O)COP(=O)(NC(C)(C)C(=O)OCC)c1ccc(-c2nc(N)sc2C(=O)C(CC)CC)o1` (centres unmarked) [Compound 5.12] the figure was 38%; with `CC(C)(C)C(=O)c1sc(N)nc1-c1ccc(P(=O)(OCCSC(=O)c2ccccc2)OCCSC(=O)c2ccccc2)o1` [Compound 6.5], 9%; with `CCOC(=O)[C@H](C)NP(=O)(Oc1ccc2c(c1)OCO2)c1ccc(-c2nc(N)sc2C(=O)C(CC)CC)o1` (some centres unmarked) [Compound 5.1], 8%. As for `CCOC(=O)[C@H](C)NP(=O)(N[C@@H](C)C(=O)OCC)c1ccc(-c2nc(N)sc2C(=O)c2ccc(C)cc2)o1` [Compound 2.16, 2-amino-5-(4-methylbenzoyl)-4-{[5-(N,N′-((S)-1-ethyl-oxycarbonyl)ethyl)-phosphonamido]furan-2-yl}thiazole], the inhibition in vivo at 10 mg/kg came to 6%. In turn, `CC(C)OC(=O)[C@H](C)NP(=O)(N[C@@H](C)C(=O)OC(C)C)c1ccc(-c2nc(N)sc2C(=O)c2cccc(F)c2)o1` [Compound 2.18, 2-amino-5-(3-fluorobenzoyl)-4-{[5-(N,N′-((S)-1-isopropyl-oxycarbonyl)ethyl)-phosphonamido]furan-2-yl}thiazole] gave an inhibition in vivo at 10 mg/kg of 13%.
